Data on two compounds can be found in publication PMC9915759, “Structural Basis for Self-Discrimination by Neoantigen-Specific TCRs” (Research Square, 2023).

Molecules are shown by their SMILES. Where two headings read alike, the source gives them in different places.

The term EC50 denotes the concentration that produces a half-maximal response.

In this test the test system is TCR 47BE7. In words: IFNγ intracellular cytokine staining of tgTCR 47BE7 CD8^+ T cells stimulated with peptide. The note with it: for EC50: tgTCR 47BE7 CD8^+ T cells, titrated peptide and αCD28, 6 hours, ICS. In kind it is cell-based, mouse. The protocol: Fig. 2 | Neoantigen-reactive CD8^+ T cells recognise cognate peptide in vitro and in vivo. a, Table detailing attributes of tumour-reactive T cell receptors (TCRs), including neoantigen-reactive (top) and tumour-associated antigen-reactive (TAA-reactive) (bottom) TCRs isolated upon vaccination. b, Neoantigen-reactive CD8^+ T cell responses were induced by vaccination; isolated tetramer^+ T cells were stimulated for 6 hours with (varying concentrations of) cognate peptide and αCD28 and subsequently analyzed via intracellular staining (ICS) flow cytometry for IFNγ expression. c, Transgenic (tg)TCR CD8^+ T cells were co-incubated with varying concentrations of cognate mutant (MT) peptide or wild type (WT) peptide (x-axis) and αCD28 for 6 hours; intracellular staining (ICS) was performed subsequently. Percentage of T cells expressing IFNγ of a parent CD3^+CD8^+ population is shown on y-axis, normalised to maximum IFNγ expression. MT peptide values are shown as clear circles, and WT as filled, black circles. […] TgTCR CD8^+ T cells expressing the indicated TCR were stimulated, as described in c, with titrated mutant (MT) or wild-type (WT) peptide and IFNγ production was measured by ICS. […] Cytokine production was measured by intracellular staining (ICS) flow cytometry (n=3/condition). […] Heatmap shown summarises the frequency of CD8^+tgTCR^+IFγ^+. f, C57BL/6 mice (n=16–26/group) were treated with Hsf2 neoantigen vaccine or PBS (mock) in accordance with timeline shown (top). tumour growth was monitored via external caliper measurement and plotted versus time since tumour inoculation (bottom). g, Tetramer staining on CD3^+ CD8^+ T cells isolated from tumour-infiltrating lymphocytes (TIL) or peripheral blood mononuclear cells (PBMCs) from mice vaccinated with each of the neoantigens listed, using same methodology as described in b. h, Schematic describing administration of ACT in vivo. […]
Fig. 4 | Structure of the pMHC-TCR ternary complex. a, Kinetics of TCR-47BE7 binding to immobilised H2-D^b/Hsf2 p.K72N as determined by biolayer interferometry. […]

`CC[C@H](C)[C@H](NC(=O)[C@H](Cc1c[nH]cn1)NC(=O)[C@@H](NC(=O)[C@@H](NC(=O)[C@H](CC(N)=O)NC(=O)[C@H](CCCNC(=N)N)NC(=O)[C@H](Cc1ccccc1)NC(=O)CNC(=O)[C@@H](N)Cc1ccc(O)cc1)C(C)C)C(C)C)C(=O)O` [Hsf2 p.K72N68–76]: the EC50 (n=3, read-out: functional avidity, half-maximal IFNγ production (EC50)) was 5.61e-06 µM.

Consider `CC[C@H](C)[C@H](NC(=O)[C@H](Cc1c[nH]cn1)NC(=O)[C@@H](NC(=O)[C@@H](NC(=O)[C@H](CCCCN)NC(=O)[C@H](CCCNC(=N)N)NC(=O)[C@H](Cc1ccccc1)NC(=O)CNC(=O)[C@@H](N)Cc1ccc(O)cc1)C(C)C)C(C)C)C(=O)O` [Hsf2_68–76], for which the “cytokine production on a per-cell basis at saturating peptide concentrations” value (MT versus WT peptide) was “partial agonist only”. Also, for the setting “95%CI NR, read-out: half-maximal IFNγ production (EC50)”, the EC50 turned out to be 8.7 µM.
